Experimental data from patent US20210393623A1 (Jacobio Pharmaceuticals Co., Ltd., priority 2018, published 2021).

Biological target: T1, SHP2 (Homo sapiens, UniProt Q06124)
T1 sequence (Q06124 1-593): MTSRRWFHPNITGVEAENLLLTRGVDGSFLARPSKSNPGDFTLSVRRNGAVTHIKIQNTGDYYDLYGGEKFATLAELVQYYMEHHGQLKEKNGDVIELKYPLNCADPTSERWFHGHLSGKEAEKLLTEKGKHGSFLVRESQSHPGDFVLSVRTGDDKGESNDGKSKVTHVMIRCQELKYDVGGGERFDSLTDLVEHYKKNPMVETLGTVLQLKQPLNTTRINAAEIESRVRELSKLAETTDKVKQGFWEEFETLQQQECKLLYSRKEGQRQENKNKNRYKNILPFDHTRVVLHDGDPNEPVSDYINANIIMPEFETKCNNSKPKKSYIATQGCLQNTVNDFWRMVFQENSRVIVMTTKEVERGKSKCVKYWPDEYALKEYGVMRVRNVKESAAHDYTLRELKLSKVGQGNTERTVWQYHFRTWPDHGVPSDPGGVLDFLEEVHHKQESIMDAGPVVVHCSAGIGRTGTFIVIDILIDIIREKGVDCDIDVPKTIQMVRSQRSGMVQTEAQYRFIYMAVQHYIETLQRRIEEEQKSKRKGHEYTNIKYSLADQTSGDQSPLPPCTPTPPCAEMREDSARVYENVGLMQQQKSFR
Assay: Phosphatase Assay (Single Dose Inhibition)
Format: biochemical
Conditions: compound at 0.02 μM (20nM); DiFMUP substrate 12 μM; SHP2 0.5 nM activated with dPEG8 peptide; DMSO control set to 100%; triplicate
Experimental: Phosphatase Assay (Single Dose Inhibition) Assay Protocol: For single dose inhibition assays using 6,8-difluoro-4-methylumbelliferyl phosphate (DiFMUP) as a substrate, SHP2 samples (diluted to 0.5 nM in reaction buffer) were incubated with dPEG8 peptide for 30 min in reaction buffer[60 mM 3,3-dimethyl glutarate (pH7.2), 75 mM NaCl, 75 mM KCl, and 1 mM EDTA, 0.05% Tween 20, 2mM dithiothreitol (DTT) ] to active the PTP. DMSO [0.5% (v/v)] or compounds (20nM) were added to the mixture and incubated for 30 min at room temperature. Reactions were initiated by the addition of DiFMUP (12 μM; total reaction volume of 100 μL), and the fluorescence (excitation at 340 nm, emission at 450 nm) of the resulting solutions was measured on a 2104-0020 EnVision Xcite Multilabel Reader (PerkinElmer) after 30min. The experiment is carried out in triplicate. The value for the control sample (DMSO) was set to 100%, and the values for the compound-treated samples were expressed as activity relative to the control sample.

inhibition at 0.02 µM | SMILES
53% | Cc1ccc(-c2n[nH]c3nc(N4CCC5(CC4)Cc4cc(F)c(F)c(F)c4[C@H]5N)n(C)c(=O)c23)s1 [Example 38, (S)-6-(1-amino-5,6,7-trifluoro-1,3-dihydrospiro[indene-2,4′-piperidin]-1′-yl)-5-methyl-3-(5-methylthiophen-2-yl)-1,5-dihydro-4H-pyrazolo[3,4-d]pyrimidin-4-one]
79% | Cc1nc(N2CCC3(CC2)Cc2ncccc2[C@H]3N)c(C(N)=O)nc1-c1cccc(Cl)c1Cl [Example 27, (S)-3-(5-amino-5,7-dihydrospiro[cyclopenta[b]pyridine-6,4′-piperidin]-1′-yl)-6-(2,3-dichlorophenyl)-5-methylpyrazine-2-carboxamide]
80% | Cc1nc(N2CCC3(CC2)Cc2ncccc2[C@H]3N)cnc1-c1cccc(Cl)c1Cl [Example 2, (S)-1′-(5-(2,3-dichlorophenyl)-6-methylpyrazin-2-yl)-5,7-dihydrospiro[cyclopenta[b]pyridine-6,4′-piperidin]-5-amine]
